In the CheMixHub viscosity set:
± gives the uncertainty stated by the source.

Assay: xn = mol fraction of the nth substance listed

Oc1ccccc1 + Nc1ccccc1
101 kPa
Settings	viscosity [mPa·s]
293.15 K, x1 = 0.0786	5.09 ± 0.05
293.15 K, x1 = 0.1517	6.1 ± 0.06
293.15 K, x1 = 0.2315	7.35 ± 0.08
293.15 K, x1 = 0.3105	8.89 ± 0.09
293.15 K, x1 = 0.3914	10.59 ± 0.11
293.15 K, x1 = 0.473	12.15 ± 0.13
293.15 K, x1 = 0.5355	13.2 ± 0.14
293.15 K, x1 = 0.6225	14.18 ± 0.15
293.15 K, x1 = 0.693	14.47 ± 0.15
293.15 K, x1 = 0.7683	14.21 ± 0.15
293.15 K, x1 = 0.8489	13.31 ± 0.14
293.15 K, x1 = 0.922	12.21 ± 0.13
303.15 K, x1 = 0.0741	3.66 ± 0.04
303.15 K, x1 = 0.1582	4.34 ± 0.05
303.15 K, x1 = 0.2314	5.07 ± 0.06
303.15 K, x1 = 0.3142	5.95 ± 0.07
303.15 K, x1 = 0.3889	6.85 ± 0.08
303.15 K, x1 = 0.4691	7.7 ± 0.09
303.15 K, x1 = 0.5374	8.36 ± 0.1
303.15 K, x1 = 0.6159	8.89 ± 0.11
303.15 K, x1 = 0.6906	9.07 ± 0.11
303.15 K, x1 = 0.7667	8.89 ± 0.11
303.15 K, x1 = 0.8466	8.34 ± 0.1
303.15 K, x1 = 0.9243	7.68 ± 0.09
308.1 K, x1 = 0.349	5.39 ± 0.11
308.1 K, x1 = 0.511	6.54 ± 0.13
308.1 K, x1 = 0.677	7.21 ± 0.14
308.1 K, x1 = 0.795	6.92 ± 0.14
313.15 K, x1 = 0.0741	2.74 ± 0.03
313.15 K, x1 = 0.1582	3.15 ± 0.03
313.15 K, x1 = 0.2314	3.61 ± 0.04
313.15 K, x1 = 0.3142	4.1 ± 0.04
313.15 K, x1 = 0.3889	4.61 ± 0.05
313.15 K, x1 = 0.4691	5.1 ± 0.05
313.15 K, x1 = 0.5374	5.45 ± 0.06
313.15 K, x1 = 0.6159	5.73 ± 0.06
313.15 K, x1 = 0.6906	5.83 ± 0.06
313.15 K, x1 = 0.7667	5.73 ± 0.06
313.15 K, x1 = 0.8466	5.46 ± 0.06
313.15 K, x1 = 0.9243	5.11 ± 0.05

C1N2CN3CN1CN(C2)C3 + O
101 kPa
Settings	viscosity [mPa·s]
293.15 K, x1 = 0.003601	1.028 ± 0.021
293.15 K, x1 = 0.007176	1.072 ± 0.021
293.15 K, x1 = 0.01043	1.127 ± 0.021
293.15 K, x1 = 0.01396	1.205 ± 0.021
293.15 K, x1 = 0.01775	1.308 ± 0.021
297.35 K, x1 = 0.022	1.515 ± 0.013
297.35 K, x1 = 0.031	1.736 ± 0.015
297.35 K, x1 = 0.041	2.087 ± 0.019
297.55 K, x1 = 0.052	2.537 ± 0.024
298.15 K, x1 = 0.003601	0.928 ± 0.021
298.15 K, x1 = 0.007176	0.979 ± 0.021
298.15 K, x1 = 0.01043	1.033 ± 0.021
298.15 K, x1 = 0.01396	1.101 ± 0.021
298.15 K, x1 = 0.01775	1.185 ± 0.021
300.15 K, x1 = 0.003601	0.83 ± 0.021
300.15 K, x1 = 0.007176	0.874 ± 0.021
300.15 K, x1 = 0.01043	0.922 ± 0.021
300.15 K, x1 = 0.01396	0.982 ± 0.021
300.15 K, x1 = 0.01775	1.058 ± 0.021
302.15 K, x1 = 0.022	1.389 ± 0.011
302.35 K, x1 = 0.031	1.627 ± 0.014
302.35 K, x1 = 0.052	2.222 ± 0.02
302.75 K, x1 = 0.041	1.832 ± 0.016
305.15 K, x1 = 0.003601	0.74 ± 0.02
305.15 K, x1 = 0.007176	0.777 ± 0.021
305.15 K, x1 = 0.01043	0.822 ± 0.021
305.15 K, x1 = 0.01396	0.884 ± 0.021
305.15 K, x1 = 0.01775	0.967 ± 0.021
306.95 K, x1 = 0.031	1.483 ± 0.013
307.35 K, x1 = 0.022	1.321 ± 0.011
307.35 K, x1 = 0.041	1.689 ± 0.014
307.35 K, x1 = 0.052	2.056 ± 0.017
311.95 K, x1 = 0.022	1.251 ± 0.01
312.15 K, x1 = 0.031	1.375 ± 0.011
312.15 K, x1 = 0.041	1.595 ± 0.013
312.15 K, x1 = 0.052	1.864 ± 0.017

CO/N=C(\C(=O)N[C@@H]1C(=O)N2C(C(=O)[O-])=C(CSc3nc(=O)c(=O)[n-]n3C)CS[C@H]12)c1csc(N)n1.[Na+].[Na+] + O
viscosity [mPa·s], 100 kPa
Settings	293.15 K	298.15 K	303.15 K	308.15 K	313.15 K
x1 = 9e-05	1.012 ± 0.027	0.8968 ± 0.026	0.8033 ± 0.026	0.7267 ± 0.026	0.6584 ± 0.026
x1 = 0.00018	1.016 ± 0.027	0.9026 ± 0.027	0.807 ± 0.027	0.7308 ± 0.026	0.6615 ± 0.026
x1 = 0.000349	1.053 ± 0.043	0.935 ± 0.038	0.829 ± 0.034	0.744 ± 0.03	–
x1 = 0.000873	1.12 ± 0.046	0.994 ± 0.04	0.885 ± 0.036	0.794 ± 0.032	–
x1 = 0.0009	1.03 ± 0.027	0.9163 ± 0.027	0.8185 ± 0.026	0.7413 ± 0.026	0.6726 ± 0.026
x1 = 0.00139	1.2 ± 0.049	1.062 ± 0.043	0.945 ± 0.039	0.849 ± 0.035	–
x1 = 0.002501	1.399 ± 0.057	1.231 ± 0.05	1.1 ± 0.045	0.982 ± 0.04	–
x1 = 0.003119	1.527 ± 0.062	1.348 ± 0.055	1.195 ± 0.049	1.07 ± 0.044	–
x1 = 0.003887	1.701 ± 0.069	1.495 ± 0.061	1.323 ± 0.054	1.184 ± 0.048	–
x1 = 0.004766	1.918 ± 0.078	1.674 ± 0.068	1.48 ± 0.06	1.322 ± 0.054	–
x1 = 0.005482	2.122 ± 0.086	1.858 ± 0.076	1.638 ± 0.067	1.455 ± 0.059	–

CO/N=C(\C(=O)N[C@@H]1C(=O)N2C(C(=O)[O-])=C(CSc3nc(C)c(CC(=O)[O-])s3)CS[C@H]12)c1csc(N)n1.[Na+].[Na+] + O
Settings	viscosity [mPa·s]
293.15 K, 101 kPa, x1 = 0.002695	1.285 ± 0.012

NCCC(=O)N[C@@H](Cc1c[nH]cn1)C(=O)O + O
viscosity [mPa·s], 100 kPa
Settings	x1 = 0.000358	x1 = 0.00054	x1 = 0.000713	x1 = 0.00108	x1 = 0.00126	x1 = 0.00143	x1 = 0.00162
293.15 K	1.024 ± 0.012	1.028 ± 0.012	1.03 ± 0.012	1.046 ± 0.012	1.053 ± 0.012	1.058 ± 0.012	1.06 ± 0.013
298.15 K	0.908 ± 0.011	0.909 ± 0.011	0.915 ± 0.011	0.928 ± 0.011	0.933 ± 0.011	0.938 ± 0.011	0.938 ± 0.011
303.15 K	0.813 ± 0.01	0.814 ± 0.01	0.818 ± 0.01	0.831 ± 0.01	0.835 ± 0.01	0.839 ± 0.01	0.84 ± 0.01
308.15 K	0.732 ± 0.009	0.733 ± 0.009	0.738 ± 0.009	0.747 ± 0.009	0.752 ± 0.009	0.756 ± 0.009	0.756 ± 0.009
313.15 K	0.663 ± 0.008	0.664 ± 0.008	0.669 ± 0.008	0.676 ± 0.008	0.681 ± 0.008	0.683 ± 0.008	0.685 ± 0.008

O=S(=O)([O-])[O-].[NH3+]O.[NH3+]O + O
viscosity [mPa·s], 101 kPa
Settings	x1 = 0.001	x1 = 0.002	x1 = 0.006	x1 = 0.012	x1 = 0.019	x1 = 0.027	x1 = 0.035	x1 = 0.045
293.15 K	1.022 ± 0.027	1.046 ± 0.028	1.134 ± 0.03	1.264 ± 0.033	1.435 ± 0.037	1.678 ± 0.043	1.925 ± 0.049	2.198 ± 0.055
298.15 K	0.905 ± 0.024	0.931 ± 0.025	0.995 ± 0.026	1.121 ± 0.029	1.277 ± 0.033	1.481 ± 0.038	1.706 ± 0.043	1.983 ± 0.049
303.15 K	0.811 ± 0.022	0.831 ± 0.022	0.89 ± 0.023	1.006 ± 0.026	1.148 ± 0.03	1.317 ± 0.034	1.523 ± 0.039	1.849 ± 0.046
313.15 K	0.666 ± 0.018	0.683 ± 0.018	0.734 ± 0.019	0.825 ± 0.022	0.937 ± 0.024	1.075 ± 0.027	1.244 ± 0.031	1.508 ± 0.038
323.15 K	0.559 ± 0.015	0.573 ± 0.015	0.616 ± 0.016	0.693 ± 0.018	0.791 ± 0.02	0.901 ± 0.023	1.04 ± 0.026	1.247 ± 0.031

Oc1ccccc1 + O
viscosity [mPa·s], 101 kPa
Settings	293.15 K	303.15 K	313.15 K	323.15 K
x1 = 0.004	1.056 ± 0.01	0.8342 ± 0.0082	0.6816 ± 0.0066	0.5696 ± 0.0056
x1 = 0.008	1.107 ± 0.011	0.8703 ± 0.0086	0.7185 ± 0.0071	0.5898 ± 0.0059
x1 = 0.01	1.16 ± 0.011	0.9071 ± 0.0091	0.737 ± 0.0074	0.611 ± 0.0062
x1 = 0.02	1.215 ± 0.012	0.9485 ± 0.0097	0.7664 ± 0.0078	0.634 ± 0.0065
x1 = 0.021	–	–	–	0.66 ± 0.048
x1 = 0.31	–	2.972 ± 0.06	2.253 ± 0.046	1.775 ± 0.036
x1 = 0.36	4.372 ± 0.093	3.153 ± 0.068	2.383 ± 0.051	1.858 ± 0.04
x1 = 0.43	4.731 ± 0.11	3.393 ± 0.077	2.553 ± 0.057	1.981 ± 0.044
x1 = 0.52	5.273 ± 0.12	3.742 ± 0.089	2.792 ± 0.066	2.164 ± 0.051
x1 = 0.63	6.146 ± 0.15	4.288 ± 0.11	3.161 ± 0.078	2.42 ± 0.059
x1 = 0.78	–	–	3.77 ± 0.095	–
